What was measured:
[1] = organism: Rattus norvegicus; conditions: Liver, Microsomes
[2] = organism: Rattus norvegicus; conditions: Liver, Microsomes; remark: listed apart in the source
Description: Ability to undergo a P450-dependent oxidative cleavage of the C=N bond by incubating with rat (untreated) liver microsomes in the presence of NADPH

[3] = organism: Rattus norvegicus; experiment: Ability to undergo a P450-dependent oxidative cleavage of their C=N bond, to release NO3- by incubating with rat (treated by DEX) liver microsomes in the presence of NADPH; type: functional
[4] = organism: Rattus norvegicus; experiment: Ability to undergo a P450-dependent oxidative cleavage of their C=N bond, to release corresponding alkylketone derivative by incubating with rat (treated by DEX) liver microsomes in the presence of the NADPH; type: functional
[5] = organism: Rattus norvegicus; experiment: Ability to undergo a P450-dependent oxidative cleavage of the C=N bond by incubating with rat (treated by DEX) liver microsomes in the presence of NADPH; type: functional

SMILES | Formation of NO2- [1] [nM] | Formation of NO2- [2] [nM] | Formation of NO3- [3] [nM] | Formation of compound [4] [nM] | Formation of NO3- [5] [nM]
CCCCCC/C=N/O | 3.7 | 0.2 | – | – | –
CCCCCCOc1ccc(C(=N)NO)cc1 | 6.8 | 0.6 | 8.1 | 12.5 | –
N/C(=N\O)N1CCCCC1 | 79 | 1.1 | – | – | –
CC(C)/N=C(/NO)NC(C)C | 62 | 0.9 | – | – | –
N/C(=N/C1CCCCC1)NO | 28.6 | < 0.1 | – | – | –
ON=C1CCCCC1 | 3 | < 0.1 | – | – | –
N/C(=N\O)c1ccc(Cl)cc1 | 2.6 | 0.7 | 1.5 | 5.1 | –
O/N=C/c1ccccc1 | 3 | < 0.1 | – | – | –
ON=C(NC1CCCCC1)NC1CCCCC1 | 58 | < 0.1 | – | – | –
N=C(NO)Nc1ccc(Cl)cc1 | 18.4 | 0.6 | 4.4 | 17.7 | –
CCCCC/C(C)=N\O | 7 | < 0.1 | – | – | –
C/C(=N\O)c1ccc(Cl)cc1 | 6.2 | 0.1 | – | 6.4 | 1.2
O/N=C/c1ccc(Cl)cc1 | 2 | < 0.1 | – | – | –
N/C(=N/c1ccc(C(F)(F)F)cc1)NO | 11 | < 0.1 | – | – | –
N/C(=N\O)c1ccccc1 | 2.5 | 0.2 | – | – | –
CCCC/C(CC)=N\O | 5.1 | < 0.1 | – | – | –
C/C(=N\O)c1ccccc1 | 3.2 | < 0.1 | – | – | –

Source: ChEMBL document CHEMBL1128622, “Formation of nitrogen oxides including NO from oxidative cleavage of CN(OH) bonds: A general cytochrome P450-dependent reaction” (Bioorg Med Chem Lett, 1995)
